Like-named read-outs stand apart in the source and are kept apart here.
How the values were obtained:
Format in all cases: biochemical, Oenococcus oeni SD-2a
[1] = biological target: mutant IV (β-glucosidase N181R); set-up: key to IC50 on Mutant IV: “-”represents no enzymatic activity; conditions: for effect on enzyme activity of mutant IV: in words
Procedure: The method for the determination of the effects of different metal ions and additives on enzyme activity was referred to Zhou et al., with slight modifications. […] The enzyme solutions (10 μL), p-NPG solution (490 μL) and different concentrations of additive solutions (500 μL) were mixed well. The reaction lasted for 30 min under the optimal reaction conditions of the enzyme. Then, 1mL 1 M Na2CO3 was added to terminate the reaction. The absorbance value of the reaction system was measured at 420 nm and the activity of the BGLs was calculated according to the standard curve. The IC50 (half of the maximum inhibitory concentration) of the reagents on BGL activity was calculated using a logistic function with Growth/Sigmoidal-type nonlinear fitting in Origin Pro 8.0.

[2] = biological target: wild-type enzyme (β-glucosidase BGL0224); assay: Effects of metal ions and additives on enzyme activity (p-NPG hydrolysis, IC50); conditions: for IC50 / IC50 on Wild-Type Enzyme: metal ions and additives, Concentration 5 mM, optimum temperature and pH; for effect on enzyme activity of the wild-type enzyme: in words
Procedure: (§1) The method for the determination of the effects of different metal ions and additives on enzyme activity was referred to Zhou et al., with slight modifications. To determine the effects of metal ions and some additives on the BGLs’ activity, lyophilized powders of the wild-type and mutant BGLs were formulated into solutions with a final concentration of 10 mg/mL using 20 mM sodium phosphate buffer as well as 25 mM of p-NPG substrate solution and different concentrations (0.1 mM, 0.5 mM, 1.0 mM, 5.0 mM and 10 mM) of metal ion solutions (K^+, Na^+, Li^+, Ag^+, Mg^2+, Zn^2+, Ba^2+, Ca^2+, Cu^2+, Mn^2+, Fe^2+ and Fe^3+) and additive solutions (SDS, DTT, EDTA, TritonX-100 and Tween-80). The enzyme solutions (10 μL), p-NPG solution (490 μL) and different concentrations of additive solutions (500 μL) were mixed well. The reaction lasted for 30 min under the optimal reaction conditions of the enzyme. Then, 1mL 1 M Na2CO3 was added to terminate the reaction. The absorbance value of the reaction system was measured at 420 nm and the activity of the BGLs was calculated according to the standard curve. The IC50 (half of the maximum inhibitory concentration) of the reagents on BGL activity was calculated using a logistic function with Growth/Sigmoidal-type nonlinear fitting in Origin Pro 8.0.

[3] = biological target: mutant III (β-glucosidase F133K); assay: as above; conditions: for IC50 / IC50 on Mutant III: metal ions and additives, Concentration 5 mM, optimum temperature and pH; for effect on enzyme activity of mutant III: in words
Procedure: as §1

[4] = biological target: wild-type enzyme (β-glucosidase BGL0224); assay: as above; set-up: key: “-”represents no enzymatic activity; conditions: additive concentration 0.2%
[5] = biological target: mutant III (β-glucosidase F133K); assay: as above; set-up: key: “-”represents no enzymatic activity; conditions: additive concentration 0.2%
[6] = metal ions and additives, Concentration 5 mM, optimum temperature and pH

Molecule	IC50 [1, 6] [mM]	IC50 [2] [mM]	IC50 [3] [mM]	effect on enzyme activity of the wild-type enzyme ([2]; metal ion at 5 mM)	effect on enzyme activity of mutant III ([3]; metal ion at 5 mM)	effect on enzyme activity of mutant IV ([1]; metal ion at 5 mM)	also measured
O[C@@H](CS)[C@@H](O)CS [DTT]	6.17	7.93	5.49				
[K+] [K^+]	2.42			enhanced	enhanced		inhibition rate on mutant IV ([1]; metal ion at 5 mM): 85.02%; IC50 on Wild-Type Enzyme [2]: Activator; IC50 on Mutant III [3]: Activator
[Li+] [Li^+]				enhanced	enhanced	enhanced	IC50 on Mutant IV [1, 6]: Activator; IC50 on Wild-Type Enzyme [2]: Activator; IC50 on Mutant III [3]: Activator
[Fe+2] [Fe^2+]	4.43	2.83	3.96	inhibitory effects	inhibitory effects	inhibitory effects	
[Na+] [Na^+]			0.929	increased		increased	IC50 on Mutant IV [1, 6]: Activator; IC50 on Wild-Type Enzyme [2]: Activator; inhibition rate on mutant III ([3]; metal ion at 5 mM): 97.45%
[Zn+2] [Zn^2+]	2.94	3.87	3.19	inhibitory effects	inhibitory effects	inhibitory effects	
CCCCCCCCCCCCOS(=O)(=O)[O-].[Na+] [SDS]	6.29	7.89	6.72				
[Ca+2] [Ca^2+]	3.28	4.09	3.38	inhibitory effects	inhibitory effects	inhibitory effects	
[Cu+2] [Cu^2+]	1.58	3.12	3.48	inhibitory effects	inhibitory effects	inhibitory effects	
O=C(O)CN(CCN(CC(=O)O)CC(=O)O)CC(=O)O [EDTA]	7.16	6.41	6.89				
[Mn+2] [Mn^2+]		3.76			promoted	promoted	IC50 on Mutant IV [1, 6]: Activator; inhibition of wild-type enzyme activity ([2]; metal ion at 5 mM): 76.51%; IC50 on Mutant III [3]: Activator
[Ba+2] [Ba^2+]				enhanced	enhanced	enhanced	IC50 on Mutant IV [1, 6]: Activator; IC50 on Wild-Type Enzyme [2]: Activator; IC50 on Mutant III [3]: Activator
Tween-80							IC50 on Wild-Type Enzyme [4]: -; IC50 on Mutant IV ([1]; additive concentration 0.2%): -; IC50 on Mutant III [5]: -
[Mg+2] [Mg^2+]	5.35	8.92	3.37	inhibitory effects	inhibitory effects	inhibitory effects	
[Ag+] [Ag^+]	2.93	7.43	3.03	inhibitory effects	inhibitory effects	inhibitory effects	
Triton X-100 [Triton-X100]							IC50 on Wild-Type Enzyme [4]: -; IC50 on Mutant IV ([1]; additive concentration 0.2%): -; IC50 on Mutant III [5]: -

Reference: PMC12072002, “Site-Directed Mutagenesis Increased the Catalytic Activity and Stability of Oenococcus oeni β-Glucosidase: Characterization of Enzymatic Properties and Exploration of Mechanisms” (International Journal of Molecular Sciences, 2025)
